Where a SMILES comes first, the peptide text is derived from it. The star is where a group is joined. Cbz = O=C(OCc1ccccc1)*; CH2F = FC*
Experiments:
[1] = biological target: T1, Caspase-3 (Homo sapiens) (UniProt P42574); assay: Inhibition of recombinant CPP32 (unknown origin) assessed as ratio of irreversible rate constant K3 to dissociation constant of the reversible binding step Ki pre-incubated for 60 mins with Acetyl-Tyr-Val-Ala-Asp-amino-4-methylcoumarin substrate followed by enzyme addition by fluorescence based assay
T1 sequence (whole entry): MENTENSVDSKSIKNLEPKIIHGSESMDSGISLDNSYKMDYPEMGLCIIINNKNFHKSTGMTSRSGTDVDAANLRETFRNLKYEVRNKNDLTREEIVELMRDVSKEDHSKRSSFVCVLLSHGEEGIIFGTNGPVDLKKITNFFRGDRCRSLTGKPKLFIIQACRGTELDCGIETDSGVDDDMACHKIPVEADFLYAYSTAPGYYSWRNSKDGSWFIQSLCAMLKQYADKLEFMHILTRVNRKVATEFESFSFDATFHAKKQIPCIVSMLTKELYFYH

[2] = biological target: Caspase-8 (Homo sapiens) (UniProt Q14790); assay: Inhibition of recombinant MCH5 (unknown origin) assessed as ratio of irreversible rate constant K3 to dissociation constant of the reversible binding step Ki pre-incubated for 60 mins with Acetyl-Tyr-Val-Ala-Asp-amino-4-methylcoumarin substrate followed by enzyme addition by fluorescence based assay
[3] = biological target: T2, Caspase-6 (Homo sapiens) (UniProt P55212); assay: Inhibition of recombinant MCH2 (unknown origin) assessed as ratio of irreversible rate constant K3 to dissociation constant of the reversible binding step Ki pre-incubated for 60 mins with Acetyl-Tyr-Val-Ala-Asp-amino-4-methylcoumarin substrate followed by enzyme addition by fluorescence based assay
T2 sequence (whole entry): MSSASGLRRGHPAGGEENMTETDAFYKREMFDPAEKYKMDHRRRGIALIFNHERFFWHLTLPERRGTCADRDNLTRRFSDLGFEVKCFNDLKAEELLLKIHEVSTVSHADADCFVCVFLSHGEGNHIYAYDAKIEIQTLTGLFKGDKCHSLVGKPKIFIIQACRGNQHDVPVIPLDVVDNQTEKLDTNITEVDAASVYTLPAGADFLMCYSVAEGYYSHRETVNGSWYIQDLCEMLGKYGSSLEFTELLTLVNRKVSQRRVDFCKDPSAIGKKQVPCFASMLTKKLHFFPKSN

[4] = biological target: T3, Caspase-1 (Mus musculus) (UniProt P29452); assay: Inhibition of mouse recombinant ICE assessed as ratio of irreversible rate constant K3 to dissociation constant of the reversible binding step Ki pre-incubated for 60 mins with Acetyl-Tyr-Val-Ala-Asp-amino-4-methylcoumarin substrate followed by enzyme addition by fluorescence based assay
T3 sequence (whole entry): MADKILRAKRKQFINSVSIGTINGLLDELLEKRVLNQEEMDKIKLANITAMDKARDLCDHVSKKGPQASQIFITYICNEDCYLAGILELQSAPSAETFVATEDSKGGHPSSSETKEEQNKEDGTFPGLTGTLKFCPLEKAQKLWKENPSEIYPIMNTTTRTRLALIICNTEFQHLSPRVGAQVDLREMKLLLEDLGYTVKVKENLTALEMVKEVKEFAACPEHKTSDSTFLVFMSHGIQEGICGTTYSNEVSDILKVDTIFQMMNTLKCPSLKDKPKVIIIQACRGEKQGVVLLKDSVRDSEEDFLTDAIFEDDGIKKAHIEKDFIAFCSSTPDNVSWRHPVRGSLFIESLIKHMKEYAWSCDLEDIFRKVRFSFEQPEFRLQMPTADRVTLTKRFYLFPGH

Chain of Caspase-8 (Homo sapiens) (Q14790 217-374 limits assumed): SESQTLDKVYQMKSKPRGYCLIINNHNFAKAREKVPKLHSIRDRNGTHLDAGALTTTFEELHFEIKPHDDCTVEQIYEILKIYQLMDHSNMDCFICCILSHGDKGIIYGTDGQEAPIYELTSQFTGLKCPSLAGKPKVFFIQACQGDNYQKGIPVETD
Chain of Caspase-8 (Homo sapiens) (Q14790 385-479 limits assumed): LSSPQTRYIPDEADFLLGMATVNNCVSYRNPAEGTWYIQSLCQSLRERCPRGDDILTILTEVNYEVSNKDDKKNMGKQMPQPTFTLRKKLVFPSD

| SMILES | Ratio [1] [M⁻¹ s⁻¹] | Ratio [2] [M⁻¹ s⁻¹] | Ratio [3] [M⁻¹ s⁻¹] | Ratio [4] [M⁻¹ s⁻¹] |
| --- | --- | --- | --- | --- |
| CC(C)[C@H](NC(=O)C(=O)Nc1ccccc1Br)C(=O)N[C@@H](CC(=O)O)C(=O)COc1c(F)c(F)cc(F)c1F | 276000 | 1.3e+06 | 230000 | 1.08e+06 |
| CC(C)[C@H](NC(=O)C(=O)Nc1cc(C(C)(C)C)ccc1C(C)(C)C)C(=O)N[C@@H](CC(=O)O)C(=O)COc1c(F)c(F)cc(F)c1F | 70600 | 51300 | 8230 | 767000 |
| CCCOc1ccc(OCC(=O)[C@H](CC(=O)O)NC(=O)[C@@H](NC(=O)C(=O)Nc2cccc3ccccc23)C(C)C)cc1 | 167000 | 286000 | 63000 | 825000 |
| C[C@H](NC(=O)C(=O)NC12CC3CC(CC(C3)C1)C2)C(=O)N[C@@H](CC(=O)O)C(=O)COC(=O)c1c(Cl)cccc1Cl | 20500 to 165000 | 18700 to 92600 | 21100 to 143000 | 46000 to 126000 |
| C[C@H](NC(=O)C(=O)NCc1cccc2ccccc12)C(=O)N[C@@H](CC(=O)O)C(=O)COc1c(F)c(F)cc(F)c1F | 158000 | 1.26e+06 | 335000 | 2.59e+06 |
| C[C@H](NC(=O)C(=O)Nc1ccccc1Cc1ccccc1)C(=O)N[C@@H](CC(=O)O)C(=O)COc1c(F)c(F)cc(F)c1F | 3430 | 154000 | 5850 | 323000 |
| C[C@H](NC(=O)C(=O)NC1CCCCC1)C(=O)N[C@@H](CC(=O)O)C(=O)COP(=O)(c1ccccc1)c1ccccc1 | 137000 | 1.79e+06 | 97500 | 2.03e+06 |
| C[C@H](NC(=O)C(=O)Nc1ccccc1Cl)C(=O)N[C@@H](CC(=O)O)C(=O)COP(=O)(c1ccccc1)c1ccccc1 | 162000 to 564000 | 179000 to 2.33e+06 | 247000 to 373000 | 103000 to 1.98e+06 |
| CC(C)[C@H](NC(=O)C(=O)Nc1ccccc1C(F)(F)F)C(=O)N[C@@H](CC(=O)O)C(=O)COc1c(F)c(F)cc(F)c1F | 57400 | 41000 | 261000 | 1.04e+06 |
| C[C@H](NC(=O)C(=O)NCc1cccc2ccccc12)C(=O)N[C@@H](CC(=O)O)C(=O)COC(=O)c1c(Cl)cccc1Cl | 187000 | 936000 | 214000 | 1.16e+06 |
| CC(C)[C@H](NC(=O)C(=O)Nc1ccccc1Cc1ccccc1)C(=O)N[C@@H](CC(=O)O)C(=O)COc1c(F)c(F)cc(F)c1F | 54800 | 105000 | 25300 | 344000 |
| C[C@H](NC(=O)C(=O)NCc1cccc2ccccc12)C(=O)N[C@@H](CC(=O)O)C(=O)COP(=O)(c1ccccc1)c1ccccc1 | 245000 | 82700 | 186000 | 191000 |
| C[C@H](NC(=O)C(=O)Nc1cccc2c1CCCC2)C(=O)N[C@@H](CC(=O)O)C(=O)COc1c(F)c(F)cc(F)c1F | 118000 | 46200 | 64100 | 22000 |
| CC(C)[C@H](NC(=O)C(=O)Nc1ccncc1)C(=O)N[C@@H](CC(=O)O)C(=O)COc1c(F)c(F)cc(F)c1F | 511 | 1140 | 5580 | 912 |
| C[C@H](NC(=O)C(=O)NC12CC3CC(CC(C3)C1)C2)C(=O)N[C@@H](CC(=O)O)C(=O)COP(=O)(c1ccccc1)c1ccccc1 | 149000 to 243000 | 50400 to 643000 | 124000 to 445000 | 27600 to 242000 |
| C[C@H](NC(=O)C(=O)NC1CCCCC1)C(=O)N[C@@H](CC(=O)O)C(=O)COC(=O)c1c(Cl)cccc1Cl | 1.17e+06 | 2.14e+06 | 655000 | 2.02e+06 |

| SMILES | Ratio [1] [M⁻¹ s⁻¹] | Ratio [2] [M⁻¹ s⁻¹] | Ratio [3] [M⁻¹ s⁻¹] | Ratio [4] [M⁻¹ s⁻¹] |
| --- | --- | --- | --- | --- |
| CC(C)[C@H](NC(=O)C(=O)Nc1cccc2ccccc12)C(=O)N[C@@H](CC(=O)O)C(=O)COc1ccc(O)cc1 | 286000 | 625000 | 69100 | 1.84e+06 |
| CC(C)[C@H](NC(=O)C(=O)Nc1ccccc1Cl)C(=O)N[C@@H](CC(=O)O)C(=O)COc1c(F)c(F)cc(F)c1F | 96300 | 234000 | 161000 | 1.54e+06 |
| CC(C)[C@H](NC(=O)C(=O)NC12CC3CC(CC(C3)C1)C2)C(=O)N[C@@H](CC(=O)O)C(=O)COc1c(F)c(F)cc(F)c1F | 6330 | 59900 | 10700 | 184000 |
| CC(C)[C@H](NC(=O)C(=O)Nc1cccc2ccccc12)C(=O)NC(CC(=O)O)C(=O)CF (mixture of isomers) | 413000 | 1.16e+06 | 199000 | 2.17e+06 |
| CCCCCCCc1ccc(NC(=O)C(=O)N[C@H](C(=O)N[C@@H](CC(=O)O)C(=O)COc2c(F)c(F)cc(F)c2F)C(C)C)cc1 | 11200 | 155000 | 50000 | 657000 |
| CC(C)[C@H](NC(=O)C(=O)Nc1c(F)cccc1F)C(=O)N[C@@H](CC(=O)O)C(=O)COc1c(F)c(F)cc(F)c1F | 62900 | 1.83e+06 | 1.08e+06 | 2.68e+06 |
| CC(C)[C@H](NC(=O)OCc1ccccc1)C(=O)N[C@@H](C)C(=O)N[C@@H](CC(=O)O)C(=O)CF (Cbz-Val-Ala-Asp-CH2F) | 12200 | 83300 | 2950 | 214000 |
| C[C@H](NC(=O)C(=O)Nc1cc(C(F)(F)F)ccc1N1CCOCC1)C(=O)N[C@@H](CC(=O)O)C(=O)COP(=O)(c1ccccc1)c1ccccc1 | 100000 | 441000 | 98500 | 369000 |
| C[C@H](NC(=O)C(=O)Nc1ccccc1C(C)(C)C)C(=O)N[C@@H](CC(=O)O)C(=O)COc1ccccc1F | 67700 | 119000 | 54900 | 442000 |
| C[C@H](NC(=O)C(=O)Nc1ccccc1F)C(=O)N[C@@H](CC(=O)O)C(=O)COC(=O)c1c(Cl)cccc1Cl | 68900 | 155000 | 129000 | 172000 |
| C[C@H](NC(=O)C(=O)Nc1ccccc1-c1ccccc1)C(=O)N[C@@H](CC(=O)O)C(=O)COP(=O)(c1ccccc1)c1ccccc1 | 243000 | 207000 | 317000 | 345000 |
| C[C@H](NC(=O)C(=O)Nc1ccccc1I)C(=O)N[C@@H](CC(=O)O)C(=O)COC(=O)c1c(Cl)cccc1Cl | 67600 to 942000 | 337000 to 551000 | 28200 to 360000 | 90100 to 1.27e+06 |
| C[C@H](NC(=O)C(=O)Nc1ccc(F)cc1)C(=O)N[C@@H](CC(=O)O)C(=O)COC(=O)c1c(Cl)cccc1Cl | 22700 | 18700 | 18600 | 11700 |
| C[C@H](NC(=O)C(=O)Nc1cccc2c1CCCC2)C(=O)N[C@@H](CC(=O)O)C(=O)COP(=O)(c1ccccc1)c1ccccc1 | 139000 to 157000 | 71800 to 1.15e+06 | 120000 to 132000 | 315000 to 905000 |
| C[C@H](NC(=O)C(=O)Nc1cc(C(F)(F)F)ccc1N1CCCC1)C(=O)N[C@@H](CC(=O)O)C(=O)COP(=O)(c1ccccc1)c1ccccc1 | 78600 | 933000 | 202000 | 1.5e+06 |
| CC(C)[C@H](NC(=O)C(=O)Nc1ccccc1F)C(=O)N[C@@H](CC(=O)O)C(=O)COc1c(F)c(F)cc(F)c1F | 5560 | 49600 | 11200 | 58500 |

From ChEMBL document CHEMBL3880422, “C-terminal modified oxamyl dipeptides as inhibitors of the ICE/ced-3 family of cysteine proteases” (2007)
